Results as given in PubChem BioAssay AID256 (DTP/NCI, 2004).
“And” between values parts separate entries of the source, which are not always exact repeats. Equal entries are not always repeated. Toxic doses and inconclusive results are not listed. The calls were made as follows: active = survival T/C of 150% or more; inactive = T/C below 125% in these data.

System: CD2F1 mice, L1210 leukemia ip, survival T/C
Experiment: NCI In Vivo Anticancer Drug Screen. Data for tumor model L1210 Leukemia (intraperitoneal) in CD2F1 (CDF1) mice
Settings: higher = longer survival
Method in brief: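 Transplantable tumor in mice; compound-treated vs vehicle-treated groups. Read-out = treated/control ratio of the measured endpoint.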

[1] = endpoint: mean survival time, dose: 100.0 mg/kg/injection, schedule: Q04DX003 (ip), vehicle: saline with Tween-80
[2] = endpoint: mean survival time, dose: 200.0 mg/kg/injection, schedule: Q04DX003 (ip), vehicle: saline with Tween-80
[3] = endpoint: mean survival time, dose: 400.0 mg/kg/injection, schedule: Q04DX003 (ip), vehicle: saline with Tween-80
[4] = endpoint: mean survival time, dose: 100.0 mg/kg/injection, schedule: Q01DX001 (ip), vehicle: saline
[5] = endpoint: mean survival time, dose: 200.0 mg/kg/injection, schedule: Q01DX001 (ip), vehicle: saline
[6] = endpoint: mean survival time, dose: 400.0 mg/kg/injection, schedule: Q01DX001 (ip), vehicle: saline
[7] = endpoint: mean survival time, dose: 100.0 mg/kg/injection, schedule: Q04DX002 (ip), vehicle: saline with Tween-80
[8] = endpoint: mean survival time, dose: 200.0 mg/kg/injection, schedule: Q04DX002 (ip), vehicle: saline with Tween-80
[9] = endpoint: mean survival time, dose: 400.0 mg/kg/injection, schedule: Q04DX002 (ip), vehicle: saline with Tween-80
[10] = endpoint: mean survival time, dose: 100.0 mg/kg/injection, schedule: Q01DX001 (ip), vehicle: saline with Tween-80
[11] = endpoint: mean survival time, dose: 200.0 mg/kg/injection, schedule: Q01DX001 (ip), vehicle: saline with Tween-80
[12] = endpoint: mean survival time, dose: 400.0 mg/kg/injection, schedule: Q01DX001 (ip), vehicle: saline with Tween-80
[13] = endpoint: mean survival time, dose: 100.0 mg/kg/injection, schedule: Q01DX009 (ip), vehicle: saline
[14] = endpoint: mean survival time, dose: 50.0 mg/kg/injection, schedule: Q01DX009 (ip), vehicle: saline with Tween-80
[15] = endpoint: mean survival time, dose: 100.0 mg/kg/injection, schedule: Q01DX009 (ip), vehicle: saline with Tween-80
[16] = endpoint: mean survival time, dose: 200.0 mg/kg/injection, schedule: Q01DX009 (ip), vehicle: saline with Tween-80
[17] = endpoint: mean survival time, dose: 400.0 mg/kg/injection, schedule: Q01DX009 (ip), vehicle: saline with Tween-80

Measured: T/C

CS(=O)(=O)OC1CC(n2ccc(=O)[nH]c2=O)OC1COC(c1ccccc1)(c1ccccc1)c1ccccc1 (stereo unspecified)
inactive: endpoint: median survival time, dose: 12.5 mg/kg/injection, schedule: Q01DX005 (ip), vehicle: saline with Tween-80 98 % of control and 103 % of control | endpoint: median survival time, dose: 25.0 mg/kg/injection, schedule: Q01DX005 (ip), vehicle: saline with Tween-80 100 % of control and 96 % of control | endpoint: median survival time, dose: 50.0 mg/kg/injection, schedule: Q01DX005 (ip), vehicle: saline with Tween-80 108 % of control and 94 % of control | endpoint: median survival time, dose: 100.0 mg/kg/injection, schedule: Q01DX005 (ip), vehicle: saline with Tween-80 100 % of control and 94 % of control | endpoint: median survival time, dose: 200.0 mg/kg/injection, schedule: Q01DX005 (ip), vehicle: saline with Tween-80 98 % of control and 101 % of control

CN1NC(c2ccccc2)C2CN(C3CCCCC3)C(=O)C21O (stereo unspecified)
inactive: [1] 92 % of control | [2] 88 % of control | [3] 101 % of control

CC(C)=CCC(OC(=O)C=C(C)C)c1cc(O)c2c(O)ccc(O)c2c1O.[Pt] (stereo unspecified)
inactive: endpoint: mean survival time, dose: 1.56 mg/kg/injection, schedule: Q04DX003 (ip), vehicle: distilled water + Tween-80 104 % of control | endpoint: mean survival time, dose: 3.12 mg/kg/injection, schedule: Q04DX003 (ip), vehicle: distilled water + Tween-80 104 % of control | endpoint: mean survival time, dose: 6.25 mg/kg/injection, schedule: Q04DX003 (ip), vehicle: distilled water + Tween-80 101 % of control | endpoint: mean survival time, dose: 12.5 mg/kg/injection, schedule: Q04DX003 (ip), vehicle: distilled water + Tween-80 101 % of control | endpoint: mean survival time, dose: 25.0 mg/kg/injection, schedule: Q04DX003 (ip), vehicle: distilled water + Tween-80 95 % of control | endpoint: mean survival time, dose: 50.0 mg/kg/injection, schedule: Q04DX003 (ip), vehicle: distilled water + Tween-80 89 % of control | endpoint: mean survival time, dose: 100.0 mg/kg/injection, schedule: Q04DX003 (ip), vehicle: distilled water + Tween-80 92 % of control

CCCCCc1ccc(C#N)cc1
inactive: endpoint: mean survival time, dose: 50.0 mg/kg/injection, schedule: Q01DX001 (ip), vehicle: saline 100 % of control | [4] 97 % of control | [5] 89 % of control | [6] 93 % of control

O=C(Cl)c1ccccc1Sc1ccccc1
inactive: [1] 87 % of control

O=C(O)CCOc1ccc(F)cc1F
inactive: [7] 86 % of control | [8] 90 % of control | [9] 86 % of control

CC12CCC(O)CC1=CCC1C2CCC2(C)C(O)CCC12 (stereo unspecified)
inactive: [10] 97 % of control | [11] 90 % of control | [12] 91 % of control

CCCCN(CNC(C)=O)N=O
inactive: [7] 95 % of control | [8] 88 % of control | [9] 100 % of control

O=S(=O)(O)NC1CCCCC1
inactive: endpoint: mean survival time, dose: 25.0 mg/kg/injection, schedule: Q01DX009 (ip), vehicle: saline 96 % of control | endpoint: mean survival time, dose: 50.0 mg/kg/injection, schedule: Q01DX009 (ip), vehicle: saline 95 % of control | [13] 91 % of control and 93 % of control

Nc1n[nH]c(=S)s1
inactive: [7] 107 % of control | [8] 96 % of control

CC(=O)c1cc2c(cc1C(C)C)CC[C@H]1[C@](C)(C#N)CCC[C@]21C
inactive: endpoint: mean survival time, dose: 25.0 mg/kg/injection, schedule: Q01DX009 (ip), vehicle: saline with Tween-80 104 % of control | [14] 90 % of control | [15] 98 % of control | [1] 87 % of control

O=C(O)c1cc(-c2ccc(-c3ccc(-c4cc(C(=O)O)c5cc(Cl)ccc5n4)cc3)cc2)nc2ccc(Cl)cc12
inactive: [15] 91 % of control | [16] 91 % of control | [17] 100 % of control

O=[N+]([O-])CC(O)C(O)C(O)C(O)CO (stereo unspecified)
inactive: [13] 107 % of control | endpoint: mean survival time, dose: 200.0 mg/kg/injection, schedule: Q01DX009 (ip), vehicle: saline 112 % of control | endpoint: mean survival time, dose: 400.0 mg/kg/injection, schedule: Q01DX009 (ip), vehicle: saline 107 % of control

CCCCCCCCC1SC1CCCCCCCC(=O)OCCOCCOCC (stereo unspecified)
inactive: endpoint: mean survival time, dose: 100.0 mg/kg/injection, schedule: Q04DX003 (ip), vehicle: Klucel (hydroxypropylcellulose) (HPC) 104 % of control | endpoint: mean survival time, dose: 200.0 mg/kg/injection, schedule: Q04DX003 (ip), vehicle: Klucel (hydroxypropylcellulose) (HPC) 104 % of control | endpoint: mean survival time, dose: 400.0 mg/kg/injection, schedule: Q04DX003 (ip), vehicle: Klucel (hydroxypropylcellulose) (HPC) 102 % of control

COC1N(C2CC(O)C(CO)O2)C(=O)NC(=O)C1(F)Br (stereo unspecified)
inactive: endpoint: mean survival time, dose: 1.56 mg/kg/injection, schedule: Q01DX009 (ip), vehicle: saline 97 % of control and 108 % of control | endpoint: mean survival time, dose: 3.12 mg/kg/injection, schedule: Q01DX009 (ip), vehicle: saline 115 % of control and 117 % of control | endpoint: mean survival time, dose: 6.25 mg/kg/injection, schedule: Q01DX009 (ip), vehicle: saline 112 % of control | endpoint: mean survival time, dose: 12.5 mg/kg/injection, schedule: Q01DX009 (ip), vehicle: saline 109 % of control | endpoint: mean survival time, dose: 100.0 mg/kg/injection, schedule: Q04DX003 (ip), vehicle: saline 110 % of control | endpoint: mean survival time, dose: 200.0 mg/kg/injection, schedule: Q04DX003 (ip), vehicle: saline 122 % of control

O=Cc1cc(C(=O)O)ccc1O
inactive: [4] 100 % of control | [5] 97 % of control | [6] 94 % of control

COc1ccccc1NC(=S)N(C)C
inactive: [14] 98 % of control | [15] 101 % of control | [16] 98 % of control

S=C(N/N=C1/CCCC/C1=N/NC(=S)N1CCOCC1)N1CCOCC1
inactive: endpoint: median survival time, dose: 1.5 mg/kg/injection, schedule: Q01DX009 (ip), vehicle: saline with Tween-80 95 % of control | endpoint: median survival time, dose: 3.0 mg/kg/injection, schedule: Q01DX009 (ip), vehicle: saline with Tween-80 96 % of control | endpoint: median survival time, dose: 6.0 mg/kg/injection, schedule: Q01DX009 (ip), vehicle: saline with Tween-80 108 % of control | endpoint: median survival time, dose: 12.0 mg/kg/injection, schedule: Q01DX009 (ip), vehicle: saline with Tween-80 109 % of control

CCOc1ccc(/C=C/c2cc[n+](C)cc2)cc1OC
inactive: [4] 103 % of control

CN(Cc1ccccc1)C(c1ccccc1)C(O)C(O)(c1ccccc1)c1ccccc1 (stereo unspecified)
inactive: endpoint: mean survival time, dose: 100.0 mg/kg/injection, schedule: Q04DX003 (ip), vehicle: acetone 97 % of control | endpoint: mean survival time, dose: 200.0 mg/kg/injection, schedule: Q04DX003 (ip), vehicle: acetone 97 % of control | endpoint: mean survival time, dose: 400.0 mg/kg/injection, schedule: Q04DX003 (ip), vehicle: acetone 90 % of control

CCOC(=O)/C=C(C)/C=C/C1C(C)=CCCC1(C)C (stereo unspecified)
inactive: [7] 103 % of control | [8] 92 % of control | [9] 100 % of control

COc1cc(/C=N/NC(=O)COc2ccccc2)ccc1O
inactive: [15] 89 % of control | [16] 89 % of control | [17] 94 % of control

CC(C)(C)OC(=O)NC(CCCCNC(=O)C(F)(F)F)C(=O)O (stereo unspecified)
inactive: [15] 102 % of control | [16] 93 % of control | [17] 87 % of control

Cc1ccc2ccccc2c1N(CC(=O)O)S(=O)(=O)c1ccccc1
inactive: [15] 103 % of control | [16] 101 % of control | [17] 88 % of control

O=C1C(=O)c2ccccc2-c2ccccc21
inactive: [14] 98 % of control | [15] 102 % of control

N=C(N)c1ccc(OCCCOc2ccc(NC(=O)Nc3ccc(S(=O)(=O)F)cc3)cc2)cc1
inactive: endpoint: mean survival time, dose: 50.0 mg/kg/injection, schedule: Q01DX001 (ip), vehicle: saline with Tween-80 95 % of control | [10] 89 % of control | [11] 93 % of control

FC(F)(F)Cc1cccc(C(F)(F)F)c1
inactive: [1] 109 % of control | [2] 108 % of control | [3] 100 % of control

CN1NC(c2ccc(Cl)cc2)C2CN(C3CCCCC3)C(=O)C21O (stereo unspecified)
inactive: [10] 100 % of control | [15] 96 % of control | [11] 96 % of control | [16] 90 % of control | [12] 94 % of control | [17] 88 % of control

CC12CCC(OC3CCCCO3)CC1=CCC1C2CCC2(C)C1CCC2(O)CCN (stereo unspecified)
inactive: endpoint: mean survival time, dose: 6.25 mg/kg/injection, schedule: Q01DX005 (ip), vehicle: other 100 % of control | endpoint: mean survival time, dose: 12.5 mg/kg/injection, schedule: Q01DX005 (ip), vehicle: other 97 % of control | endpoint: mean survival time, dose: 15.6 mg/kg/injection, schedule: Q01DX001 (ip), vehicle: Klucel (hydroxypropylcellulose) (HPC) 104 % of control | endpoint: mean survival time, dose: 31.2 mg/kg/injection, schedule: Q01DX001 (ip), vehicle: Klucel (hydroxypropylcellulose) (HPC) 96 % of control | endpoint: mean survival time, dose: 62.5 mg/kg/injection, schedule: Q01DX001 (ip), vehicle: Klucel (hydroxypropylcellulose) (HPC) 98 % of control

COc1ccc(C2(O)C3CCC2CC3)cc1 (stereo unspecified)
inactive: endpoint: mean survival time, dose: 12.5 mg/kg/injection, schedule: Q04DX002 (ip), vehicle: saline with Tween-80 96 % of control | endpoint: mean survival time, dose: 25.0 mg/kg/injection, schedule: Q04DX002 (ip), vehicle: saline with Tween-80 101 % of control | endpoint: mean survival time, dose: 50.0 mg/kg/injection, schedule: Q04DX002 (ip), vehicle: saline with Tween-80 108 % of control
